US20210228500A1, “CELLULAR RETINOID BINDING PROTEIN ANTAGONISTS AND USES THEREOF” (CASE WESTERN RESRVE UNIVERSITY, priority 2018, published 2021)
“Also recorded” adds a separate entry of the source.

How the values were obtained:
[1] = system: Balb/cJ mice; experiment: Light-induced retinal degeneration (OCT, H&E histology); format: in vivo
Protocol: Retinal degeneration was induced by exposing dark-adapted Balb/cJ mice to white light with an intensity of ˜50 000 l×, delivered from a 100 W AC90-145 V lightemitting diode (LED) lamp (Home Depot) for 1 h. Abn-CBD in doses of 30, 15, or 7.5 mg kg^−1 was administered by i.p. injection in sterilized 80% DMSO/water (v/v) 1 h before exposure to bright light. […] Retinal morphology was analyzed in vivo by OCT 7 d after the light exposure. Then the mice were euthanized, and their eyes were subjected to staining with H&E staining and imaging.
To assess the effect of abn-CBD on light-induced retinal degeneration in Balb/cJ mice, the retinas were examined by ultrahigh resolution OCT (Bioptigen). Pupils of mice were first dilated with 1% tropicamide, and the animals were anesthetized with ketamine/xylazine cocktail. Twenty-five frames of OCT images scanned at 0° and 90° were acquired in the B-scan and averaged.
The structural morphology of mouse retinas challenged with bright light were assessed using H&E staining of paraffin sections. Mouse eyes were fixed in 4% paraformaldehyde and 1% glutaraldehyde followed by paraffin sectioning. Paraffin sections (5 μm thick) were stained with H&E and imaged by light microscopy (Leica).

[2] = target: cannabinoid receptor 2 (Homo sapiens, UniProt P34972); settings: cited from earlier work
[3] = target: cannabinoid receptor 1 (Homo sapiens, UniProt P21554); settings: cited from earlier work
[4] = target: T1, CRBP4 (Homo sapiens, UniProt Q96R05); experiment: Crystal structure of CRBP4 in complex with abn-CBD; format: binding; settings: crystal structure PDB No. 6E6K
T1 construct: thrombin cut site (residual residues after digestion) (C); 6x histidine tag (C, cleaved yes); made in house; host or cells: E. coli BL21 (DE3) (as for CRBP2)
T1 sequence (Q96R05 1-134): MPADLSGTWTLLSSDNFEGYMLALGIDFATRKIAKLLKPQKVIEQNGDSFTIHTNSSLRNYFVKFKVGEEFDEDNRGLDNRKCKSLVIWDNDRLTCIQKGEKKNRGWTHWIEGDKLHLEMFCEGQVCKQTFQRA
Excerpt: The cDNA of human CRBP4 was purchased from Origene Technologies. The introduction of a thrombin cut site at the C-terminus was achieved by PCR amplification of the cDNA. The PCR product was subcloned into pET30b vector. For the most part, CRBP4 was expressed and purified as described for CRBP2. However, after digestion with thrombin and reloading onto HisTrap column, the unbound fraction of the protein was further purified on a HiTrap SP HP ion exchanger column (GE Healthcare). CRBP4 was loaded in 10 mM Tris/HCl buffer, pH 8.0 buffer, and subsequently eluted with a gradient of NaCl (0-0.5 M) over 30 min at a flow rate 1.0 mL min^−1. Purified CRBP4 was concentrated to 6 mg mL^−1 and liquated at −80° C.
Crystals of CRBP1 in complex abn-CBD and its derivatives (abn-CBDO or CBDO) were grown essentially as described by Silvaroli et al (ACS Chem Biol. 2019, 15; 14(3)). The apo protein at 3 mg mL-1 was preincubated with 300 μM of a ligand in 10 mM Tris-HCl buffer, pH 8.0, 150 mM NaCl for 15 min on ice. This sample (1 μL) was mixed in 1:1 ratio with a crystallization solution composed of 0.1 M BisTris, pH 5.5, and 25% poly(ethylene glycol) (PEG) 3350 (w/v). […]

Sequence of cannabinoid receptor 2 (P34972 whole entry): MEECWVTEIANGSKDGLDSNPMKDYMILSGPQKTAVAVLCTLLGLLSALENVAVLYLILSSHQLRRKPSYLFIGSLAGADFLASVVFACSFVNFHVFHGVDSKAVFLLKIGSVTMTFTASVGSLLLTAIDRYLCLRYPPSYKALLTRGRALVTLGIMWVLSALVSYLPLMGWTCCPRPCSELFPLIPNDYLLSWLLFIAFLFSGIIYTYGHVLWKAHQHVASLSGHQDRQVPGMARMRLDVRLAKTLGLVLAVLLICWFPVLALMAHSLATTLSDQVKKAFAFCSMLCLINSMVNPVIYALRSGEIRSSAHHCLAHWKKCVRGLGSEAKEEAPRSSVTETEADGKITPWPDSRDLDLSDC
Sequence of cannabinoid receptor 1 (P21554 whole entry, species assumed): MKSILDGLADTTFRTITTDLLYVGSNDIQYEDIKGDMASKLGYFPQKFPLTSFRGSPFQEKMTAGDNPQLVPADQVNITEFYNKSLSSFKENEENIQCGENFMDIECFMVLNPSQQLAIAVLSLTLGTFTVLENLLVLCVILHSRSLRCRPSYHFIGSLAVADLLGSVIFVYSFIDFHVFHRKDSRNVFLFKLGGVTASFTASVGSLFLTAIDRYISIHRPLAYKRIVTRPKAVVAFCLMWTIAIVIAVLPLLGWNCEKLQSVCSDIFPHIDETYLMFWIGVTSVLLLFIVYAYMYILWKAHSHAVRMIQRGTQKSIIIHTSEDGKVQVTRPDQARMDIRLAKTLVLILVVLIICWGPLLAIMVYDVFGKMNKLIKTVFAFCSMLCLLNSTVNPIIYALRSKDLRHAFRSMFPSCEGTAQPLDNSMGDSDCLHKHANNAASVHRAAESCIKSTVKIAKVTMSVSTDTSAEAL

C=C(C)[C@@H]1CCC(C)=C[C@H]1c1c(O)cc(O)cc1CCCCC [abn-CBD, 4-[(1R,6R)-3-Methyl-6-prop-1-en-2-ylcyclohex-2-en-1-yl]-5-pentylbenzene-1,3-diol]
retinal histology (H&E) after light exposure ([1]; 7 d post illumination): protective effect; also recorded: partial preservation of the photoreceptor cells
dose causing 50% of maximum effect (ED50), protection against light-induced retinal damage ([1]; i.p. before bright light, OCT (ONL thickness) 7 d later, estimated): ~15 mg/kg
protection against light-induced retinal damage (OCT retinal morphology) ([1]; i.p. before bright light, OCT a week later): largely protected; also recorded: protective effect
interaction with cannabinoid receptor 2 [2]: does not interact
interaction with cannabinoid receptor 1 [3]: does not interact
binding to CRBP4 [4]: bind abn-CBD similarly to CRBP1
